In brackets after ≈: the same amount, converted by molar mass.
Columns and labels:
Assay type in all cases: functional
Candida albicans [1] = assay: In vitro antifungal activity for Candida albicans 4711E
Nakaseomyces glabratus = assay: In vitro antifungal activity for Candida glabrata 2375E
Candida tropicalis = assay: In vitro antifungal activity for Candida tropicalis 2808E
Kluyveromyces marxianus = assay: In vitro antifungal activity for Candida pseudotropicalis 2371E
Cryptococcus neoformans = assay: In vitro antifungal activity for Cryptococcus neoformans 2867E
Candida albicans [2] = assay: In vitro antifungal activity for Candida albicans 2402E
Candida albicans [3] = assay: In vitro antifungal activity for Candida albicans 2005E

CC(C)C1=CC2CC3(C=O)[C@@H]4CC[C@@H](C)[C@H]4CC2(CO[C@@H]2O[C@H](C)[C@H]4OC(=S)OC4[C@@H]2O)C13C(=O)O (single isomer, unassigned)
MIC (Candida albicans [1]): 62 µg/mL (≈ 119 µM)
MIC (Nakaseomyces glabratus): 125 µg/mL (≈ 240 µM)
MIC (Candida tropicalis): > 125 µg/mL
MIC (Kluyveromyces marxianus): 31 µg/mL (≈ 59.5 µM)
MIC (Cryptococcus neoformans): 16 µg/mL (≈ 30.7 µM)
MIC (Candida albicans [2]): 62 µg/mL (≈ 119 µM)
MIC (Candida albicans [3]): 31 µg/mL (≈ 59.5 µM)

CC(C)C1=CC2CC3(C=O)[C@@H]4CC[C@@H](C)[C@H]4CC2(CO[C@H]2C[C@@H]4OC(=O)O[C@@H]4[C@@H](C)O2)C13C(=O)O (stereo partly specified)
MIC (Candida albicans [1]): 2 µg/mL (≈ 4.09 µM)
MIC (Nakaseomyces glabratus): 8 µg/mL (≈ 16.4 µM)
MIC (Candida tropicalis): 2 µg/mL (≈ 4.09 µM)
MIC (Kluyveromyces marxianus): 1 µg/mL (≈ 2.05 µM)
MIC (Cryptococcus neoformans): 16 µg/mL (≈ 32.7 µM)
MIC (Candida albicans [2]): 4 µg/mL (≈ 8.19 µM)
MIC (Candida albicans [3]): 1 µg/mL (≈ 2.05 µM)

CC(C)C1=CC2CC3(C=O)[C@@H]4CC[C@@H](C)[C@H]4CC2(CO[C@@H]2O[C@H](C)[C@H]4OC(C)(C)OC4[C@@H]2O)C13C(=O)O (single isomer, unassigned)
MIC (Candida albicans [1]): 0.12 µg/mL (≈ 0.231 µM)
MIC (Nakaseomyces glabratus): 31 µg/mL (≈ 59.8 µM)
MIC (Candida tropicalis): 1 µg/mL (≈ 1.93 µM)
MIC (Kluyveromyces marxianus): 0.06 µg/mL (≈ 0.116 µM)
MIC (Cryptococcus neoformans): 125 µg/mL (≈ 241 µM)
MIC (Candida albicans [2]): 0.5 µg/mL (≈ 0.964 µM)
MIC (Candida albicans [3]): 0.12 µg/mL (≈ 0.231 µM)

CC(C)C1=CC2CC3(C=O)[C@@H]4CC[C@@H](C)[C@H]4CC2(CO[C@H]2C[C@@H]4OC(C)(C)CO[C@@H]4[C@@H](C)O2)C13C(=O)O (stereo partly specified)
MIC (Candida albicans [1]): 0.25 µg/mL (≈ 0.484 µM)
MIC (Nakaseomyces glabratus): > 125 µg/mL
MIC (Candida tropicalis): 1 µg/mL (≈ 1.94 µM)
MIC (Kluyveromyces marxianus): 0.03 µg/mL (≈ 0.0581 µM)
MIC (Cryptococcus neoformans): 31 µg/mL (≈ 60 µM)
MIC (Candida albicans [2]): 0.12 µg/mL (≈ 0.232 µM)
MIC (Candida albicans [3]): 0.015 µg/mL (≈ 0.029 µM)

CC1O[C@H]2[C@H](C[C@H](OCC34C[C@@H]5[C@H](C)CC[C@H]5C5(C=O)CC3C=C(C(C)C)C45C(=O)O)O[C@@H]2C)O1 (stereo partly specified)
MIC (Candida albicans [1]): < 0.001 µg/mL
MIC (Nakaseomyces glabratus): 8 µg/mL (≈ 16.4 µM)
MIC (Candida tropicalis): 0.03 µg/mL (≈ 0.0614 µM)
MIC (Kluyveromyces marxianus): 0.004 µg/mL (≈ 0.00819 µM)
MIC (Cryptococcus neoformans): 31 µg/mL (≈ 63.4 µM)
MIC (Candida albicans [3]): < 0.001 µg/mL

C/C=C/C=C(\C)C(=O)O[C@H]1[C@H](O)[C@H](OCC23C[C@@H]4[C@H](C)CC[C@H]4C4(C=O)CC2C=C(C(C)C)C34C(=O)O)O[C@H](C)[C@H]1OC (stereo partly specified)
MIC (Candida albicans [1]): 0.25 µg/mL (≈ 0.416 µM)
MIC (Nakaseomyces glabratus): > 125 µg/mL
MIC (Candida tropicalis): 0.06 µg/mL (≈ 0.0999 µM)
MIC (Kluyveromyces marxianus): 0.03 µg/mL (≈ 0.0499 µM)
MIC (Cryptococcus neoformans): 0.25 µg/mL (≈ 0.416 µM)
MIC (Candida albicans [2]): 0.03 µg/mL (≈ 0.0499 µM)
MIC (Candida albicans [3]): 0.015 µg/mL (≈ 0.025 µM)

CC(C)C1=CC2CC3(C=O)[C@@H]4CC[C@@H](C)[C@H]4CC2(CO[C@H]2C[C@@H]4OC(=S)O[C@@H]4[C@@H](C)O2)C13C(=O)O (stereo partly specified)
MIC (Candida albicans [1]): 2 µg/mL (≈ 3.96 µM)
MIC (Nakaseomyces glabratus): 16 µg/mL (≈ 31.7 µM)
MIC (Candida tropicalis): 125 µg/mL (≈ 248 µM)
MIC (Kluyveromyces marxianus): 1 µg/mL (≈ 1.98 µM)
MIC (Cryptococcus neoformans): 8 µg/mL (≈ 15.9 µM)
MIC (Candida albicans [2]): 8 µg/mL (≈ 15.9 µM)
MIC (Candida albicans [3]): 2 µg/mL (≈ 3.96 µM)

CC(C)C1=CC2CC3(C=O)[C@@H]4CC[C@@H](C)[C@H]4CC2(CO[C@@H]2O[C@H](C)[C@H]4OC(C)(C)OC4[C@H]2O)C13C(=O)O (single isomer, unassigned)
MIC (Candida albicans [1]): 8 µg/mL (≈ 15.4 µM)
MIC (Nakaseomyces glabratus): > 125 µg/mL
MIC (Candida tropicalis): 31 µg/mL (≈ 59.8 µM)
MIC (Kluyveromyces marxianus): 2 µg/mL (≈ 3.86 µM)
MIC (Cryptococcus neoformans): > 125 µg/mL
MIC (Candida albicans [2]): 8 µg/mL (≈ 15.4 µM)
MIC (Candida albicans [3]): 2 µg/mL (≈ 3.86 µM)

CC(C)C1=CC2CC3(C=O)[C@@H]4CC[C@@H](C)[C@H]4CC2(CO[C@@H]2C[C@@H]4OC(C)(C)O[C@@H]4[C@@H](C)O2)C13C(=O)O (stereo partly specified)
MIC (Candida albicans [1]): 4 µg/mL (≈ 7.96 µM)
MIC (Nakaseomyces glabratus): > 125 µg/mL
MIC (Candida tropicalis): 16 µg/mL (≈ 31.8 µM)
MIC (Kluyveromyces marxianus): 4 µg/mL (≈ 7.96 µM)
MIC (Cryptococcus neoformans): > 125 µg/mL
MIC (Candida albicans [3]): 2 µg/mL (≈ 3.98 µM)

CC(C)C1=CC2CC3(C=O)[C@@H]4CC[C@@H](C)[C@H]4CC2(CO[C@H]2C[C@@H]4OC(C)(C)O[C@@H]4[C@@H](C)O2)C13C(=O)O (stereo partly specified)
MIC (Candida albicans [1]): 0.004 µg/mL (≈ 0.00796 µM)
MIC (Nakaseomyces glabratus): 31 µg/mL (≈ 61.7 µM)
MIC (Candida tropicalis): 0.12 µg/mL (≈ 0.239 µM)
MIC (Kluyveromyces marxianus): 0.004 µg/mL (≈ 0.00796 µM)
MIC (Cryptococcus neoformans): 8 µg/mL (≈ 15.9 µM)
MIC (Candida albicans [2]): 0.008 µg/mL (≈ 0.0159 µM)
MIC (Candida albicans [3]): < 0.001 µg/mL

CC1OC2[C@H](O)[C@H](OCC34C[C@@H]5[C@H](C)CC[C@H]5C5(C=O)CC3C=C(C(C)C)C45C(=O)O)O[C@H](C)[C@H]2O1 (single isomer, unassigned)
MIC (Candida albicans [1]): 0.5 µg/mL (≈ 0.991 µM)
MIC (Nakaseomyces glabratus): 62 µg/mL (≈ 123 µM)
MIC (Candida tropicalis): 1 µg/mL (≈ 1.98 µM)
MIC (Kluyveromyces marxianus): 0.5 µg/mL (≈ 0.991 µM)
MIC (Cryptococcus neoformans): 16 µg/mL (≈ 31.7 µM)
MIC (Candida albicans [3]): 0.03 µg/mL (≈ 0.0595 µM)

CC(C)C1=CC2CC3(C=O)[C@@H]4CC[C@@H](C)[C@H]4CC2(CO[C@H]2C[C@@H]4OCO[C@@H]4[C@@H](C)O2)C13C(=O)O (stereo partly specified)
MIC (Candida albicans [1]): 0.03 µg/mL (≈ 0.0632 µM)
MIC (Nakaseomyces glabratus): 16 µg/mL (≈ 33.7 µM)
MIC (Candida tropicalis): 0.25 µg/mL (≈ 0.527 µM)
MIC (Kluyveromyces marxianus): 0.03 µg/mL (≈ 0.0632 µM)
MIC (Cryptococcus neoformans): 0.5 µg/mL (≈ 1.05 µM)
MIC (Candida albicans [2]): 0.015 µg/mL (≈ 0.0316 µM)
MIC (Candida albicans [3]): 0.015 µg/mL (≈ 0.0316 µM)
